In ChEMBL document CHEMBL2417377, “Hit-to-lead optimization and kinase selectivity of imidazo[1,2-a]quinoxalin-4-amine derived JNK1 inhibitors” (Bioorg Med Chem Lett, 2013) one finds IC50 data, which are given here for 4 compounds.

In this test the target is Mitogen-activated protein kinase 8 (Homo sapiens, UniProt P45983). Put plainly: Inhibition of human recombinant histidine-tagged full-length JNK1 expressed in insect cells activated by GST-tagged MAP2K7 using ATF2 as substrate after 1 hr by luminescence plate reader analysis.

SMILES strings stand for the structures.

Mitogen-activated protein kinase 8, sequence (P45983 whole entry): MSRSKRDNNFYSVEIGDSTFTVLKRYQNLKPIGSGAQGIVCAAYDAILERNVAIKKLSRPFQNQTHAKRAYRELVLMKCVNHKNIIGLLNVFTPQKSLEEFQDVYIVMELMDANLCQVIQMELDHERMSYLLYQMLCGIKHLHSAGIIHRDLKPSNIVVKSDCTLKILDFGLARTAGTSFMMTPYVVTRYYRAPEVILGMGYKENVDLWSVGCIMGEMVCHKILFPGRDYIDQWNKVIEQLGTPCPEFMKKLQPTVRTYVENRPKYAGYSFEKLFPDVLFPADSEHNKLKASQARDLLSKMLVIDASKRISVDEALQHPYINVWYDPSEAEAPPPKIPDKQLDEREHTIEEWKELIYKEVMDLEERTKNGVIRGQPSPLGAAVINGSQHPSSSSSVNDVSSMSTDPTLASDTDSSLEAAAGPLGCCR

As usually defined, the IC50 is the concentration needed to halve the response being measured. On to `c1ccc(CNc2nc3ccccc3n3ccnc23)cc1`, for which the IC50 worked out at 8.4 µM. As for `c1ccc(CCNc2nc3ccccc3n3ccnc23)cc1`, the half-maximal inhibitory concentration (IC50) was determined as 6.7 µM. In the case of `c1ccc2c(c1)nc(NC1CCCCC1)c1nccn12`, the IC50 came out at 1.6 µM. Take `O[C@H]1CC[C@H](Nc2nc3ccccc3n3ccnc23)CC1`: the half-maximal inhibitory concentration (IC50) stood at 0.91 µM.
